Measurements taken from ChEMBL document CHEMBL1201862, “PubChem BioAssay data set” (2004).
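Step 1: Grow cells in 96-well plates. Step 2: Expose to compound for 48 hours at 5 concentrations. Step 3: Interpolate endpoints linearly; if unreached, use highest concentration. GI50 marks 50% less growth.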 The source made the active and inactive calls. Rule as the data show it: active = GI50 up to about 1.1 µM and inactive = higher.

How the values were obtained:
Assay in all cases: NCI anticancer screen, dose series, 48 h
[1] = test system: SF-295
[2] = test system: TK-10
[3] = test system: NCI-H23
[4] = test system: HOP-92
[5] = test system: SR
[6] = test system: HCT-116
[7] = test system: UO-31
[8] = test system: KM12
[9] = test system: MOLT-4
[10] = test system: U-251
[11] = test system: SNB-19
[12] = test system: HOP-62
[13] = test system: RXF 631
[14] = test system: M19-MEL
[15] = test system: OVCAR-8
[16] = test system: SNB-78
[17] = test system: A498
[18] = test system: SK-MEL-28
[19] = test system: DMS-273
[20] = test system: RXF 393
[21] = test system: A549
[22] = test system: NCI-H460
[23] = test system: HL-60
[24] = test system: EKVX
[25] = test system: OVCAR-5
[26] = test system: UACC-257
[27] = test system: SK-OV-3
[28] = test system: CCRF-CEM
[29] = test system: ACHN
[30] = test system: NCI-H226
[31] = test system: HT-29
[32] = test system: IGROV-1
[33] = test system: NCI-H522
[34] = test system: M14
[35] = test system: DMS-114
[36] = test system: HCC 2998
[37] = test system: UACC-62
[38] = test system: OVCAR-3
[39] = test system: SF-268
[40] = test system: Malme-3M
[41] = test system: RPMI-8226
[42] = test system: HCT-15
[43] = test system: SNB-75
[44] = test system: CAKI-1
[45] = test system: SN12C
[46] = test system: 786-0
[47] = test system: K562
[48] = test system: KM-20L2
[49] = test system: OVCAR-4
[50] = test system: COLO 205
[51] = test system: SK-MEL-5
[52] = test system: SF-539
[53] = test system: SK-MEL-2

`CCCC(=O)OCC1OC2OC(C)(C)OC2C2OC(C)(C)OC12` (stereo not drawn) was tested, and the GI50 [1] was > 100 µM (inactive), the GI50 [2] was 23.6 µM (inactive) and the GI50 [3] was > 100 µM (inactive). The GI50 [4] was > 100 µM (inactive), the GI50 [5] was > 100 µM (inactive) and the GI50 [6] was > 100 µM (inactive). For the same compound, the GI50 [7] was > 100 µM (inactive), the GI50 [8] was > 100 µM (inactive) and the GI50 [9] was > 100 µM (inactive). For the same compound, the GI50 [10] was > 100 µM (inactive), the GI50 [11] was > 100 µM (inactive) and the GI50 [12] was > 100 µM (inactive). The GI50 [13] was > 100 µM (inactive), the GI50 [14] was > 100 µM (inactive) and the GI50 [15] was > 100 µM (inactive). For the same compound, the GI50 [16] was > 100 µM (inactive), the GI50 [17] was > 100 µM (inactive) and the GI50 [18] was > 100 µM (inactive). The GI50 [19] was > 100 µM (inactive), the GI50 [20] was > 100 µM (inactive) and the GI50 [21] was > 100 µM (inactive). For the same compound, the GI50 [22] was > 100 µM (inactive), the GI50 [23] was > 100 µM (inactive) and the GI50 [24] was > 100 µM (inactive). The GI50 [25] was > 100 µM (inactive), the GI50 [26] was > 100 µM (inactive) and the GI50 [27] was > 100 µM (inactive). The GI50 [28] was > 100 µM (inactive), the GI50 [29] was > 100 µM (inactive) and the GI50 [30] was 19 µM (inactive). For the same compound, the GI50 [31] was > 100 µM (inactive), the GI50 [32] was > 100 µM (inactive) and the GI50 [33] was > 100 µM (inactive). For the same compound, the GI50 [34] was > 100 µM (inactive).

With `Cc1cc(C)nc(NS(=O)(=O)c2ccc(Nc3c4ccccc4nc4c(C(=O)N5CCN(CCO)CC5)ccc(Cl)c34)cc2)n1` the GI50 [1] was > 100 µM (inactive), the GI50 [2] was > 100 µM (inactive) and the GI50 [3] was > 100 µM (inactive). For the same compound, the GI50 [4] was > 100 µM (inactive), the GI50 [6] was 50.9 µM (inactive) and the GI50 [35] was 72.3 µM (inactive). For the same compound, the GI50 [7] was > 100 µM (inactive), the GI50 [8] was > 100 µM (inactive) and the GI50 [9] was 25.9 µM (inactive). For the same compound, the GI50 [10] was 97.3 µM (inactive), the GI50 [11] was > 100 µM (inactive) and the GI50 [36] was > 100 µM (inactive). For the same compound, the GI50 [37] was 83 µM (inactive), the GI50 [12] was > 100 µM (inactive) and the GI50 [13] was 85.5 µM (inactive). The GI50 [38] was > 100 µM (inactive), the GI50 [39] was 76.9 µM (inactive) and the GI50 [40] was > 100 µM (inactive). The GI50 [14] was 76 µM (inactive), the GI50 [41] was 91.4 µM (inactive) and the GI50 [15] was > 100 µM (inactive). For the same compound, the GI50 [16] was > 100 µM (inactive), the GI50 [42] was 52.2 µM and the GI50 [17] was > 100 µM (inactive). The GI50 [18] was > 100 µM (inactive), the GI50 [19] was > 100 µM (inactive) and the GI50 [20] was > 100 µM (inactive). For the same compound, the GI50 [43] was 87.9 µM (inactive), the GI50 [21] was > 100 µM (inactive) and the GI50 [44] was > 100 µM (inactive). For the same compound, the GI50 [45] was 94.2 µM (inactive), the GI50 [46] was 68.1 µM (inactive) and the GI50 [22] was > 100 µM (inactive). The GI50 [23] was 34.4 µM (inactive), the GI50 [47] was 38.5 µM (inactive) and the GI50 [25] was > 100 µM (inactive). The GI50 [26] was 51.5 µM (inactive), the GI50 [48] was 60.8 µM (inactive) and the GI50 [27] was > 100 µM (inactive). For the same compound, the GI50 [49] was > 100 µM (inactive), the GI50 [28] was 25.9 µM (inactive) and the GI50 [50] was 63 µM (inactive). The GI50 [30] was > 100 µM (inactive), the GI50 [31] was 70 µM (inactive) and the GI50 [51] was 42.8 µM (inactive). The GI50 [52] was > 100 µM (inactive), the GI50 [32] was > 100 µM (inactive) and the GI50 [53] was > 100 µM (inactive). For the same compound, the GI50 [34] was 34 µM (inactive).

`CCN(CC)CSc1nc2ccccc2o1` was tested, and the GI50 [1] was > 100 µM (inactive), the GI50 [2] was > 100 µM (inactive) and the GI50 [3] was > 100 µM (inactive). The GI50 [4] was > 100 µM (inactive), the GI50 [5] was > 100 µM (inactive) and the GI50 [6] was > 100 µM (inactive). The GI50 [35] was > 100 µM (inactive), the GI50 [7] was > 100 µM (inactive) and the GI50 [8] was > 100 µM (inactive). For the same compound, the GI50 [9] was > 100 µM (inactive), the GI50 [10] was > 100 µM (inactive) and the GI50 [11] was > 100 µM (inactive). The GI50 [37] was > 100 µM (inactive), the GI50 [12] was > 100 µM (inactive) and the GI50 [13] was > 100 µM (inactive). For the same compound, the GI50 [14] was > 100 µM (inactive), the GI50 [15] was > 100 µM (inactive) and the GI50 [16] was > 100 µM (inactive). For the same compound, the GI50 [17] was > 100 µM (inactive), the GI50 [18] was > 100 µM (inactive) and the GI50 [19] was > 100 µM (inactive). For the same compound, the GI50 [20] was > 100 µM (inactive), the GI50 [21] was > 100 µM (inactive) and the GI50 [22] was > 100 µM (inactive). For the same compound, the GI50 [23] was > 100 µM (inactive), the GI50 [24] was > 100 µM (inactive) and the GI50 [25] was > 100 µM (inactive). For the same compound, the GI50 [26] was > 100 µM (inactive), the GI50 [27] was > 100 µM (inactive) and the GI50 [28] was > 100 µM (inactive). The GI50 [29] was > 100 µM (inactive), the GI50 [31] was > 100 µM (inactive) and the GI50 [32] was > 100 µM (inactive). For the same compound, the GI50 [33] was > 100 µM (inactive) and the GI50 [34] was > 100 µM (inactive).
